Measured values as given in patent publication US20080292584A1 (priority 2005, published 2008).
Where “and” joins values, the source holds several entries; their conditions need not be identical. Equal values may be shown once. Read-outs that look alike come from different tables or passages of the source.

Assays:
CYP2D6 = CYP2D6 (Homo sapiens, UniProt P10635); settings: both, pH 7.4; for Mean Conc.: 60 min; for % Turnover Mean: microsomes, 1 h
Procedure: Human liver microsomes pooled from 15 individuals (male and female) (Pool HMMC-PL020; CellzDirect, Inc., In Vitro Products and Services Division) were used in some experiments of this study.
% Turnover=100−{[TA(final)]/[mean of TA(0 min)]}×100,
% Inhibition of Turnover=100{1−([TA(0 min)]−[TA(final-inhibitor)])/([TA(0 min)]−[TA(final-no inhibitor)])}.
The inhibitors or vehicle control were incubated with the pooled human liver microsomes (1 mg/mL) and NADPH (1 mM) in 0.1 M phosphate buffer, pH 7.4. […] Incubations were conducted in triplicate and terminated by addition of organic solvent. Samples were extracted and analyzed by LC-MS/MS as described above.

[1] = in vivo; Bruce et al. 1966; cited from earlier work
[2] = 400 mg oral dosage form; humans; cited from earlier work
CYP2C19 = CYP2C19 (Homo sapiens, UniProt P33261); settings: for 4′-Hydroxymephenytoin formation Adjusted Individual / 4′-Hydroxymephenytoin formation Adjusted Mean ± SD: 4 h; for Percent of VC / Specific Activity Individual / Specific Activity Mean ± SD: 48 h
Sequence of CYP2C19 (P33261 whole entry): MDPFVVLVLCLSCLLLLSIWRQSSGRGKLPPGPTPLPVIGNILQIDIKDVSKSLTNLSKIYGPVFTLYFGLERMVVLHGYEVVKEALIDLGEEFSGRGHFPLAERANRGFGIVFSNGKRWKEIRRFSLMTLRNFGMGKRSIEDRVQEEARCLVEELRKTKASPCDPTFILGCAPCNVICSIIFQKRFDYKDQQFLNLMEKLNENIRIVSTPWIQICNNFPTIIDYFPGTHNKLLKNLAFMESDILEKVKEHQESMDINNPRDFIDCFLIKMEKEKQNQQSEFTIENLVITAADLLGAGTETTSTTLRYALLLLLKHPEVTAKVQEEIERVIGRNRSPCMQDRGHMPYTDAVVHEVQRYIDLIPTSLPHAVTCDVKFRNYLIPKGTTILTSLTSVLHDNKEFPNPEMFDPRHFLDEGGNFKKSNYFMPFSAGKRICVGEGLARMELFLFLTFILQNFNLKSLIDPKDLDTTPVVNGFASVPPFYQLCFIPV
Excerpt: Hepatocytes from three human donors were obtained from a cryopreserved hepatocyte bank (In Vitro Technologies, Inc., USA). After thawing, viable hepatocytes were transferred to collagen-coated 48-well plates for attachment in plating medium (DMEM stock (Dulbecco's modified Eagle's medium, supplemented with bovine serum albumin, fructose, N-(2-hydroxyethyl)piperazine-N′-(2-ethanesulfonate) (HEPES), and sodium bicarbonate), supplemented with antibiotics, bovine serum, hydrocortisone, insulin and minimum essential medium (MEM) nonessential amino acids). After attachment to the collagen matrix, plating medium was replaced with sandwich medium (plating medium supplemented with VITROGEN) and incubated until use.
The supplemented KHB was replaced with 150 μL supplemented KHB containing the appropriate isoform-selective substrate and incubated for 4 hrs prior to termination by adding 150 μL ice-cold methanol, except for the CYP2C8 incubations which were terminated by adding 150 μL acetonitrile.
All substrates were dissolved in acetonitrile.
Replicate trials and controls were performed. […] Additionally, reference control samples were included to evaluate inducibility of CYP2B6, CYP2C9, and CYP2C19 in the test system.
Mean specific activity values with associated p-values≦0.05 were deemed to be statistically significant.

human CYP1A2 = biological target: T1, human CYP1A2 (Homo sapiens, UniProt P05177); assay: Metabolism of metaxalone by expressed recombinant human CYP1A2 (disappearance of metaxalone, HPLC; Example 1); settings: 30 min;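 also: recombinant CYP1A2 microsomes (10 pmol P450) in Tris buffer containing 1% methanol, reactions driven by an NADPH regenerating system, 0.5 mL incubations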
T1 sequence (P05177 2-516 limits assumed): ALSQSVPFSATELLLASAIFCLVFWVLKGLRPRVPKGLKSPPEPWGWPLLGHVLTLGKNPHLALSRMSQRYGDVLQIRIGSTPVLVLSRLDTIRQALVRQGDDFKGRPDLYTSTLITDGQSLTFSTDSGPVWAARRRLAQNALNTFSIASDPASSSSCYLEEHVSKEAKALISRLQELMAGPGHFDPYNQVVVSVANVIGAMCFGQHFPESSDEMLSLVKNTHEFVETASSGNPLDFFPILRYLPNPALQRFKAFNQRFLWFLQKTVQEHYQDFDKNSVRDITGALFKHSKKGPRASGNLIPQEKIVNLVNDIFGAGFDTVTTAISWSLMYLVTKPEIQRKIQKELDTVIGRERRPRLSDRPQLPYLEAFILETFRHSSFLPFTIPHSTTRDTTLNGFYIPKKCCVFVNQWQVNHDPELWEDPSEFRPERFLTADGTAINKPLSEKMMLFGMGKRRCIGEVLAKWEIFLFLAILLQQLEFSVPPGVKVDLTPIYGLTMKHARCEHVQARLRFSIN
Procedure: Commercially available microsomes from baculovirus-infected insect cells containing singly-expressed recombinant wild-type (*1 allele) human CYP enzymes and cDNA-expressed human cytochrome p450 oxidoreductase [BD SUPERSOMES Enzymes; BD Biosciences Discovery Labware (Woburn, Mass.)] were used.
After a 5-minute pre-incubation, an NADPH regenerating system (NRS) was added to the incubation mixtures to initiate reactions, with a final incubation volume of 0.5 mL. Incubations were continued for 30 minutes, and then terminated, except for those for CYP2C19, which were incubated for 36 minutes prior to termination.
Matrix controls were performed to determine the background signal from the matrix components (microsomes (10 pmol p450), 01N Tris buffer, NRS, and 1% methanol). […] After a 5-minute pre-incubation, 2% sodium bicarbonate solution was added to the incubation mixtures. Incubation was for 30 minutes at a final volume of 0.5 mL. Matrix and metabolic negative controls were terminated by adding an equal volume of methanol. […] Analysis of samples was subsequent to storage at −70° C.

CYP2A6 = biological target: T2, CYP2A6 (Homo sapiens, UniProt P11509); assay: Inhibition of CYP2A6 activity in pooled human liver microsomes (coumarin 8 μM to 7-hydroxy coumarin); format: in vitro ADME
T2 sequence (P11509 1-494): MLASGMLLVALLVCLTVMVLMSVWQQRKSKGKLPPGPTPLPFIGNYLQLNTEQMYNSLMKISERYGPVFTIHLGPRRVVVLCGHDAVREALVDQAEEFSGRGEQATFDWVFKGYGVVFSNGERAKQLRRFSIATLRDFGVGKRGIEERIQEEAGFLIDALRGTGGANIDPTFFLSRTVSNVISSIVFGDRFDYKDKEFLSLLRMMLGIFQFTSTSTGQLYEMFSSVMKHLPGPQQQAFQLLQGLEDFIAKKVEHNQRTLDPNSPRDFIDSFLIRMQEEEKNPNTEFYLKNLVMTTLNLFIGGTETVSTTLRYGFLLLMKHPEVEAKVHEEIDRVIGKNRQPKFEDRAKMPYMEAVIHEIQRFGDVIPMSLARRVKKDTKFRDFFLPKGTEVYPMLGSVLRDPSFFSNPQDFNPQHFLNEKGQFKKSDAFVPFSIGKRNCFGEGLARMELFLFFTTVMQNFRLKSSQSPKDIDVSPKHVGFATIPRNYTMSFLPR
Procedure: All other incubations were for 30 minutes.
Four replicates were performed.
Two replicates were performed.

Sequence of CYP2D6 (P10635 whole entry): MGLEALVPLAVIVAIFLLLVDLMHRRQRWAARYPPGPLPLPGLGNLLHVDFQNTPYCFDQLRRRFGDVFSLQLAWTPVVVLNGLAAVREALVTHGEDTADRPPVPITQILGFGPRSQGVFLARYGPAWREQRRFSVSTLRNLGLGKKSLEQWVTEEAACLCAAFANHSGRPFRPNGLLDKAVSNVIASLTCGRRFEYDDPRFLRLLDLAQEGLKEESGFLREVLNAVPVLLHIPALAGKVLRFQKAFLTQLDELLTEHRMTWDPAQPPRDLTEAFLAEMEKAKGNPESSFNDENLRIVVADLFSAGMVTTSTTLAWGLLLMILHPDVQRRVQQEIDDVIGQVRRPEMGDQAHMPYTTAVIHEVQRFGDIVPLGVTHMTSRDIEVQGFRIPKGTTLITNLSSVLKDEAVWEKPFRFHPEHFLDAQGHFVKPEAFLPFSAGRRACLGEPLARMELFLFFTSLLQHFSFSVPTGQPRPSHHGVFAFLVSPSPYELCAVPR

For Cc1cc(C)cc(OCC2CNC(=O)O2)c1 (centres unmarked) [metaxalone, 5-[(3,5-dimethylphenoxy)methyl]-2-oxazolidinone], the “Mean Conc.” value (CYP2D6; 0.75 μM) was 0.769 µM, the “Mean Conc.” value (CYP2D6; 7.5 μM) was 7.66 µM and the “% Turnover Mean” value (CYP2D6; 0.75 μM) was 0.376%. The “% Turnover Mean” value (CYP2D6; 7.5 μM) was 10.0%, the “metaxalone converted to a carboxylic acid derivative” value [1] was 27% and the “observed increase of extent of absorption (AUC0-inf) with food relative to fasted treatment” value [2] was 115.4%. The “observed increase of extent of absorption (AUC0-t) with food relative to fasted treatment” value [2] was 123.5%, the “observed increase of peak plasma concentration (Cmax) with food relative to fasted treatment” value [2] was 177.5% and the Inducer/Inhibitor (CYP2C19) was 0. The “4′-Hydroxymephenytoin formation Adjusted Individual” value (CYP2C19; 0.4 µM) was <0.0500 µM, the “4′-Hydroxymephenytoin formation Adjusted Mean ± SD” value (CYP2C19; 0.4 µM) was <0.0500 ± 0.000 µM and the “4′-Hydroxymephenytoin formation Adjusted Individual” value (CYP2C19; 0.4 μM) was <0.0500 µM. The “4′-Hydroxymephenytoin formation Adjusted Mean ± SD” value (CYP2C19; 0.4 μM) was <0.0500 ± 0.000 µM, the “4′-Hydroxymephenytoin formation Adjusted Individual” value (CYP2C19; 4 µM) was <0.0500 µM and the “4′-Hydroxymephenytoin formation Adjusted Mean ± SD” value (CYP2C19; 4 µM) was <0.0500 ± 0.000 µM. The “4′-Hydroxymephenytoin formation Adjusted Individual” value (CYP2C19; 4 μM) was <0.0500 µM, the “4′-Hydroxymephenytoin formation Adjusted Mean ± SD” value (CYP2C19; 4 μM) was <0.0500 ± 0.000 µM and the “4′-Hydroxymephenytoin formation Adjusted Individual” value (CYP2C19; 40 µM) was <0.0500 µM. The “4′-Hydroxymephenytoin formation Adjusted Mean ± SD” value (CYP2C19; 40 µM) was <0.0500 ± 0.000 µM, the “4′-Hydroxymephenytoin formation Adjusted Individual” value (CYP2C19; 40 μM) was <0.0500 µM and the “4′-Hydroxymephenytoin formation Adjusted Mean ± SD” value (CYP2C19; 40 μM) was <0.0500 ± 0.000 µM. For the same molecule, the “Percent of VC” value (CYP2C19; 0.4 µM) was 100%, the “Specific Activity Individual” value (CYP2C19; 0.4 µM) was <0.446 pmol/min/million cells and the “Specific Activity Mean ± SD” value (CYP2C19; 0.4 µM) was <0.446 ± 0.000 pmol/min/million cells. For the same molecule, the “Percent of VC” value (CYP2C19; 0.4 μM) was 100%, the “Specific Activity Individual” value (CYP2C19; 0.4 μM) was <0.446 pmol/min/million cells and the “Specific Activity Mean ± SD” value (CYP2C19; 0.4 μM) was <0.446 ± 0.000 pmol/min/million cells. For the same molecule, the “Percent of VC” value (CYP2C19; 4 µM) was 100%, the “Specific Activity Individual” value (CYP2C19; 4 µM) was <0.446 pmol/min/million cells and the “Specific Activity Mean ± SD” value (CYP2C19; 4 µM) was <0.446 ± 0.000 pmol/min/million cells. For the same molecule, the “Percent of VC” value (CYP2C19; 4 μM) was 100%, the “Specific Activity Individual” value (CYP2C19; 4 μM) was <0.446 pmol/min/million cells and the “Specific Activity Mean ± SD” value (CYP2C19; 4 μM) was <0.446 ± 0.000 pmol/min/million cells. The “Percent of VC” value (CYP2C19; 40 µM) was 100%, the “Specific Activity Individual” value (CYP2C19; 40 µM) was <0.446 pmol/min/million cells and the “Specific Activity Mean ± SD” value (CYP2C19; 40 µM) was <0.446 ± 0.000 pmol/min/million cells. The “Percent of VC” value (CYP2C19; 40 μM) was 100%, the “Specific Activity Individual” value (CYP2C19; 40 μM) was <0.446 pmol/min/million cells and the “Specific Activity Mean ± SD” value (CYP2C19; 40 μM) was <0.446 ± 0.000 pmol/min/million cells. For the same molecule, the “Metaxalone Present Adjusted Individual” value (human CYP1A2; metaxalone 0.5 μM) was 0.302 µM and 0.440 µM and 0.315 µM, the “Metaxalone Present Adjusted Mean ± SD” value (human CYP1A2; metaxalone 0.5 μM) was 0.352 ± 0.0761 µM and the “Metaxalone Present Raw” value (human CYP1A2; metaxalone 0.5 μM) was 0.1509 µM and 0.2198 µM and 0.1573 µM. The “Percent of Metabolic Negative Control Individual” value (human CYP1A2; metaxalone 0.5 μM) was 77.1% and 112% and 80.4%, the “Percent of Metabolic Negative Control Mean ± SD” value (human CYP1A2; metaxalone 0.5 μM) was 89.9 ± 19.4% and the “Metaxalone Present Adjusted Individual” value (human CYP1A2; metaxalone 2.5 μM) was 1.05 µM and 1.06 µM and 1.08 µM. The “Metaxalone Present Adjusted Mean ± SD” value (human CYP1A2; metaxalone 2.5 μM) was 1.07 ± 0.0167 µM, the “Metaxalone Present Raw” value (human CYP1A2; metaxalone 2.5 μM) was 0.527 µM and 0.5291 µM and 0.5423 µM and the “Percent of Metabolic Negative Control Individual” value (human CYP1A2; metaxalone 2.5 μM) was 79.5% and 79.8% and 81.8%. For the same molecule, the “Percent of Metabolic Negative Control Mean ± SD” value (human CYP1A2; metaxalone 2.5 μM) was 80.4 ± 1.26%, the “Metaxalone Present Adjusted Individual” value (human CYP1A2; metaxalone 25 μM) was 16.4 μM (2×) and 17.0 μM and the “Metaxalone Present Adjusted Mean ± SD” value (human CYP1A2; metaxalone 25 μM) was 16.6 ± 0.337 µM. For the same molecule, the “Metaxalone Present Raw” value (human CYP1A2; metaxalone 25 μM) was 8.205 µM and 8.192 µM and 8.49 µM, the “Percent of Metabolic Negative Control Individual” value (human CYP1A2; metaxalone 25 μM) was 82.8% and 82.6% and 85.6% and the “Percent of Metabolic Negative Control Mean ± SD” value (human CYP1A2; metaxalone 25 μM) was 83.7 ± 1.70%. For the same molecule, the “inhibition of CYP activity at a statistically significant level” value (CYP2A6; 0.3-100 μM metaxalone) was “no tested concentration of metaxalone inhibited activity”, the Inhibitor (CYP2A6; CYP isozyme 2A6, summary of studies) was 0 and the “Percent of VC” value (CYP2A6; metaxalone 0.3 μM) was 96.9%. The “Specific Activity Individual” value (CYP2A6; metaxalone 0.3 μM) was 430 pmol/min/mg protein and 398 pmol/min/mg protein and 410 pmol/min/mg protein, the “Specific Activity Mean ± SD” value (CYP2A6; metaxalone 0.3 μM) was 413 ± 16.0 pmol/min/mg protein and the “Percent of VC” value (CYP2A6; metaxalone 1 μM) was 95.7%. The “Specific Activity Individual” value (CYP2A6; metaxalone 1 μM) was 399 pmol/min/mg protein and 409 pmol/min/mg protein and 414 pmol/min/mg protein, the “Specific Activity Mean ± SD” value (CYP2A6; metaxalone 1 μM) was 407 ± 7.36 pmol/min/mg protein and the “Percent of VC” value (CYP2A6; metaxalone 3 μM) was 102%. For the same molecule, the “Specific Activity Individual” value (CYP2A6; metaxalone 3 μM) was 420 pmol/min/mg protein and 453 pmol/min/mg protein and 435 pmol/min/mg protein, the “Specific Activity Mean ± SD” value (CYP2A6; metaxalone 3 μM) was 436 ± 16.1 pmol/min/mg protein and the “Percent of VC” value (CYP2A6; metaxalone 30 μM) was 107%. The “Specific Activity Individual” value (CYP2A6; metaxalone 30 μM) was 433 pmol/min/mg protein and 461 pmol/min/mg protein and 471 pmol/min/mg protein, the “Specific Activity Mean ± SD” value (CYP2A6; metaxalone 30 μM) was 455 ± 19.7 pmol/min/mg protein and the “Percent of VC” value (CYP2A6; metaxalone 100 μM) was 94.8%. For the same molecule, the “Specific Activity Individual” value (CYP2A6; metaxalone 100 μM) was 395 pmol/min/mg protein and 393 pmol/min/mg protein and 423 pmol/min/mg protein and the “Specific Activity Mean ± SD” value (CYP2A6; metaxalone 100 μM) was 404 ± 16.6 pmol/min/mg protein.
